Entries after “also recorded” stand apart in the source; their conditions may differ. Read-outs that look alike come from different tables or passages of the source.
Legend:
[1] = system: L. amazonensis axenic amastigotes; assay: Anti-amastigote effect on axenic amastigotes, MTT; type: cell-based, Leishmania amazonensis; conditions: L. amazonensis axenic amastigotes, 24 h, MTT
Procedure: The amastigote forms of L. amazonensis were maintained under cryopreservation until they were transferred to an NNN medium (Novy–MacNeal–Nicolle) and incubated at 26 °C until the parasites reached the log growth phase. Subsequently, the suspension was transferred to Schneider culture medium (Sigma-Aldrich, St. Louis, MO, USA), supplemented with 20% inactivated fetal bovine serum and 0.2% gentamicin sulfate at 26 °C, causing the parasites to return to the log growth phase. The cultures were then maintained at 37 °C, producing a growth curve and the formation of the axenic amastigote strains.
The concentrations of the compounds AMTAC-02 and ACMD-03 capable of eliminating 50% of the cells in the cultures of L. amazonensis amastigotes (IC50) were determined using the MTT [3-(4,5-dimethylthiazol-2-yl)-2,5-diphenyltetrazolium bromide] (Sigma-Aldrich) reagent. In a 96-well plate, the assay was initiated by diluting both compounds to concentrations of 2, 4, 8, 16, and 32 μg/mL and 2.0 × 10^5 axenic amastigotes per well. The plates were incubated at 37 °C for 24 h. Then, 10 μL of MTT was added per well, and the cultures were re-incubated for 4 h. Subsequently, 50 μL of dimethyl sulfoxide was added to each well to solubilize the formazan crystals formed. The absorbances were measured using a SpectraMAX GeminiXS plate spectrophotometer (Molecular Devices LLC) at a wavelength of 570 nm. The negative control consisted of untreated cells, while the positive control was assessed by incubating the axenic amastigotes with the reference drug Amphotericin B® [13].

[2] = system: L. infantum promastigotes (Strain MHOM/BR/70/BH46); assay: Anti-promastigote effect, Neubauer chamber counting; type: cell-based, Leishmania infantum; conditions: 72 h incubation, read-out: L. infantum IC50PRO
Procedure: (§1) The promastigote cultures of L. infantum (Strain MHOM/BR/70/BH46) and L. amazonensis (Strain MHOM/BR/PH8) were kept in Schneider medium (Sigma-Aldrich, St. Louis, MO, USA) supplemented with 20% fetal bovine serum (FBS) and 1% streptomycin/penicillin in a B.O.D. incubator (J. Prolab, model JP. 100 LBCM/CPAM) at 26 °C. The promastigote strains were used in the exponential growth phase in all stages for experimental purposes.
(§2) The Neubauer chamber method was used to assess the inhibitory concentrations of the synthesized spiro-acridines capable of eliminating 50% of the promastigotes in cultures of L. amazonensis and L. infantum (IC50) strains. Promastigotes from both species were collected, counted, and diluted in Schneider’s medium (Sigma-Aldrich, St. Louis, MO, USA) supplemented with 20% fetal bovine serum (FBS) at a final concentration of 1 × 10^6 cells/mL. The evaluated promastigotes were then exposed to different concentrations of the tested compounds (10, 5, 2.5, 1.25, and 0.625 μg/mL). The positive control used the commercial drug Amphotericin B®, while the negative control consisted of promastigotes incubated in Schneider’s medium alone. After 72 h of incubation at 25 °C, culture growth was observed by counting the viable cells using a Neubauer chamber and calculated using the following Equation (1): No. Leishmania/mL = No. of cells counted × No. of Neubauer chamber(1) quadrants × the dilution used × 10^4 (Neubauer chamber correction factor)
(§3) The concentration parameter that inhibits 50% of parasite growth (IC50) was used to estimate the growth inhibition of the promastigote species of Leishmania sp. Thus, IC50 was determined by linear regression analysis with SPSS 8.0 software for Windows. Each test was performed in two independent experiments, with different cultures and in technical triplicate.

[3] = system: macrophages infected with L. amazonensis; assay: Reactive oxygen and nitrogen species (DCF-DA, DAF-FM diacetate); type: cell-based; conditions: 24 h; for expression of ROS: 2, 4 and 8 µg/mL, DCF-DA, compared to basal macrophage
Excerpt: The assay for the quantification of reactive oxygen species (ROS) and reactive nitrogen species (RNS) was executed using, respectively, the probe 2′,7′-dichlorodihydrofluorescein diacetate (DCF-DA) and 4-amino-5-methylamino-2′,7′-difluorofluorescein diacetate (DAF-FM diacetate), which produce 2–7-dichlorofluorescein (DCF) and 4-amino-5-methylamino-2′,7′-difluorofluorescein (DAF-FM) in the presence of the respective reactive species. Therefore, initially, macrophages were adhered to and infected with L. amazonensis in a plate, followed by the treatment with AMTAC-02 or ACMD-03 at concentrations of 2, 4, and 8 μg/mL. Subsequently, following a 24-h treatment period, the plates were incubated for 30 min with the DCF-DA probe diluted in saline (pH 7.2) and for 1 h with the DAF-FM diacetate probe diluted in saline (pH 7.2), respectively, in a humid chamber at 37 °C with 5% CO2, protected from light. The cells were washed twice with saline (pH 7.2) at room temperature and then resuspended in 200 µL of saline under the same conditions. The negative control comprised uninfected and untreated macrophages, while the positive control comprised untreated macrophages infected with L. amazonensis. Afterward, the fluorescence intensity in each sample was captured using the BD LRS II FORTESSA flow cytometer and the DIVA program version 7 (BD Bioscience). The mean fluorescence intensity (MFI) was then obtained by processing the data in FlowJoTM version 10.6.1. The experiment was performed in triplicate, and the results were calculated as the difference in MFI in each group.

[4] = system: L. amazonensis promastigotes (Strain MHOM/BR/PH8); assay: Anti-promastigote effect, Neubauer chamber counting; type: cell-based, Leishmania amazonensis; conditions: 72 h incubation, read-out: L. amazonensis IC50PRO
Procedure: as §1, §2, §3

Compound | IC50 [1] [µM] | IC50 [2] [µM] | expression of ROS [3] | expression of RNS ([3]; DAF-FM diacetate, versus infected macrophage) | IC50 [4] [µM] | IC50 ([1]; Leishmania amazonensis) [µM] | IC50 ([2]; Leishmania infantum) [µM] | IC50 ([4]; Leishmania amazonensis) [µM]
N#CC1=CC2(c3ccccc3Nc3ccccc32)N(c2ccc(Cl)cc2)C1=O [ACMD-03, (E)1′-(4-chlorophenyl)-5′-oxo-1′, 5′-dihydro-10H-spiro{acridine-9,2′-pyrrole]-4′-carbonitrile] | 10.5 | 7.82 | significantly increased ROS expression | intensified RNS expression; also recorded: significantly increased (* p < 0.05) RNS at a concentration of 2 µg/mL | 11 | – | – | –
COc1ccc(/C=N/N2C(=O)C(C#N)=CC23c2ccccc2Nc2ccccc23)cc1 [AMTAC-02, (E)-1′-((4-methoxybenzylidene)amino)-5′-oxo-1′,5′-dihydro-10H-spiro[acridine-9,2′-pyrrole]-4′-carbonitrile] | 13.5 | – | significantly increased ROS expression | – | – | 10.5 to 13.5 | 2.22 | 0.73
